# Test results published in ChEMBL document CHEMBL1201862, “PubChem BioAssay data set” (2004).
# The source made the active and inactive calls.
# Legend:
# [1] = biological target: Induced myeloid leukemia cell differentiation protein Mcl-1 (Homo sapiens, UniProt Q07820); assay type: functional
# [2] = biological target: G-protein coupled receptor 55 (Homo sapiens, UniProt Q9Y2T6); assay: GPR55 agonists via beta-arrestin recruitment, primary screen, imaging, U2OS cells, beta-arrestin-GFP redistribution (AID 1961); assay type: functional
# Chain of G-protein coupled receptor 55 (Q9Y2T6 whole entry): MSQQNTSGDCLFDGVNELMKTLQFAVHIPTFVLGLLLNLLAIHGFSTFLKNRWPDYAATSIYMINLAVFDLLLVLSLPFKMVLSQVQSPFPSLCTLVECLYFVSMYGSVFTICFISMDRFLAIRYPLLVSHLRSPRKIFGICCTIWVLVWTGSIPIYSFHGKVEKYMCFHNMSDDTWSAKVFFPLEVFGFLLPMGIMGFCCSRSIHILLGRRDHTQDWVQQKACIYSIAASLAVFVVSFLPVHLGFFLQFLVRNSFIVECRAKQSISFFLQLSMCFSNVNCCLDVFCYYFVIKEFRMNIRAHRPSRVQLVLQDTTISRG
# [3] = cytotoxicity in HEK-293T cells, dose response, cytotoxicity control for BCR NF-kB inhibitor project, luminescence, B-cell screen hits (AID 489021); assay type: functional, cell-based;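 note: HEK-293T cells carrying an NF-kB luciferase reporter; cells exposed to compound for about 14 hours before viability readout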
# [4] = biological target: T1, Replicative DNA helicase DnaB (Mycobacterium tuberculosis, UniProt P9WMR3); assay: DnaB intein splicing inhibitors, dose response, biochemical, cell-free fluorescence (AID 449749); assay type: functional
# T1 sequence (P9WMR3 whole entry): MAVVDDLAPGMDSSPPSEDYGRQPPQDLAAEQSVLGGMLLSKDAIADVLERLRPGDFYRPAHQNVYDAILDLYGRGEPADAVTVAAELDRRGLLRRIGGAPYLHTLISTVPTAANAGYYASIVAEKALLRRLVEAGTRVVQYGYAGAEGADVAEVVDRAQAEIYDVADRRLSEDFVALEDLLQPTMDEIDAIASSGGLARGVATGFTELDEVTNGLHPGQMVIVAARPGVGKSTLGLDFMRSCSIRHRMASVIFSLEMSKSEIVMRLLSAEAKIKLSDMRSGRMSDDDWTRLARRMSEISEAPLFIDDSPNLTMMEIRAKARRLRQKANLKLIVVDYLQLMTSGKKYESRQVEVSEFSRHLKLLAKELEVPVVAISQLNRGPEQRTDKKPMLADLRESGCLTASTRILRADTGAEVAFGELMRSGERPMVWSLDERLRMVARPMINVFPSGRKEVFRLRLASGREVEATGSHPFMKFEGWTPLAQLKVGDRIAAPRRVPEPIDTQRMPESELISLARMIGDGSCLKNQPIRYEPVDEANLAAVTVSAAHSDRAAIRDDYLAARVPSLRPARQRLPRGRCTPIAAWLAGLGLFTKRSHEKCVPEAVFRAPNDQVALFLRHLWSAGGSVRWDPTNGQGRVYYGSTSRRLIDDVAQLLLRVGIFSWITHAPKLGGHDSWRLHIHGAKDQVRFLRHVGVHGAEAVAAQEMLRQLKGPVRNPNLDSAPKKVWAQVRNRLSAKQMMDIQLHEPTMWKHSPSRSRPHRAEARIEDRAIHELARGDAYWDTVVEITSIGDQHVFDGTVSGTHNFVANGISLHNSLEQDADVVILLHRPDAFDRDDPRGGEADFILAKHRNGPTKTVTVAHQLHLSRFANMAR
# Protein RecA = biological target: T2, Protein RecA (Mycobacterium tuberculosis, UniProt P9WHJ3); assay: Fluorescence Cell-Free Homogeneous Dose Retest to Identify Inhibitors of RecA-Intein Splicing Activity. [Related pubchem assays (depositor defined):AID2097, AID2223, AID489010, AID492950]; assay type: functional
# T2 sequence (P9WHJ3 whole entry): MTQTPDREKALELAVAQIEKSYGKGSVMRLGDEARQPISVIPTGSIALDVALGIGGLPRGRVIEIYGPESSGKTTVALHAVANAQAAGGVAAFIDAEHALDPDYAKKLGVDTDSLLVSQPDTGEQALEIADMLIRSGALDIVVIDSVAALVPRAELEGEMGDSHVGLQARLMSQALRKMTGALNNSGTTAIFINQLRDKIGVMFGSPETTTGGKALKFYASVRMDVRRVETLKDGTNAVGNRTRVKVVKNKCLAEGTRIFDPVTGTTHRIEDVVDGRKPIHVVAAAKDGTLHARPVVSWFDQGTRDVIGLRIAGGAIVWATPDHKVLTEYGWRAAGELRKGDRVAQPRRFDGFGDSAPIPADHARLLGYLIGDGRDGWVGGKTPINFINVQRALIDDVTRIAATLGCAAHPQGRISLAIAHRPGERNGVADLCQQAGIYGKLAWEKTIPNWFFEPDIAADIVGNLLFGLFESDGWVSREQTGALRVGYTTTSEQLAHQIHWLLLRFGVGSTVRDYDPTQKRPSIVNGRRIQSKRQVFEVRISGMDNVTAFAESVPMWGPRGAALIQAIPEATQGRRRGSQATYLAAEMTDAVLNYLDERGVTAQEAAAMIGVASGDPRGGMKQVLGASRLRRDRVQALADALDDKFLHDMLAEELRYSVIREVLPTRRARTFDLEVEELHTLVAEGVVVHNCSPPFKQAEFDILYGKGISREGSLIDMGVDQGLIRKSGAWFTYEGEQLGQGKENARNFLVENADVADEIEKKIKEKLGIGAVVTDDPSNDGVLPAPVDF
# [5] = insulin promoter down-regulators in MIN6 cells, imaging, high-content screening, mouse beta cells (AID 1628); assay type: functional
# [6] = cytotoxicity in MIN6 insulinoma cells, dose response, cytotoxicity control, cell-based, mouse insulinoma (AID 2122); assay type: functional;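 note: confirmatory high-throughput counterscreen run to flag cytotoxic compounds; mouse MIN-6 beta cells carrying an insulin promoter eGFP reporter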
# HeLa = assay: HeLa cell cytotoxicity, dose response, cytotoxicity control for MITF activator project, CellTiter-Glo luminescence, cherry-pick samples (AID 540259); assay type: functional, cell-based; conditions: Homo sapiens
# cells = assay type: functional
# [7] = THP-1 cell cytotoxicity, dose response, cytotoxicity control for non-replicating M. tuberculosis project (AID 489025); assay type: functional
# [8] = HepG2 cell cytotoxicity, dose response, cytotoxicity control for non-replicating M. tuberculosis project (AID 489018); assay type: functional; conditions: Mycobacterium tuberculosis
# Bcl-2-related protein A1 = biological target: T3, Bcl-2-related protein A1 (Mus musculus, UniProt Q07440); assay type: functional;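 note: confirmatory dose–response counterscreen on Bfl-1, used to check hits from a UBC13 polyubiquitin inhibitor campaign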
# T3 sequence (Q07440 whole entry): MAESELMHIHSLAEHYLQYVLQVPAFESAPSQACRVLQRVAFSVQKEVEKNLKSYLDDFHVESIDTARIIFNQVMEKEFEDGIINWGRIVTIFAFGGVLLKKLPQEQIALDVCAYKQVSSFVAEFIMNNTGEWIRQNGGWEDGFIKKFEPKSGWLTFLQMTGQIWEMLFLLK
# [9] = biological target: T4, Ubiquitin-conjugating enzyme E2 N (Homo sapiens, UniProt P61088); assay type: functional
# T4 sequence (P61088 whole entry): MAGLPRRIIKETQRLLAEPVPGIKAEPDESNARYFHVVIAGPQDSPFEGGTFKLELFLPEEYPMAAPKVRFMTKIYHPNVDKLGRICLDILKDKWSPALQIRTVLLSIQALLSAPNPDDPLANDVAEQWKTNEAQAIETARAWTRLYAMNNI
# [10] = biological target: T4, Ubiquitin-conjugating enzyme E2 N; assay type: functional; remark: listed apart in the source
# [11] = control 3'UTR Renilla luciferase suppression, dose response, counter-screen for Shn3 inhibitor project, cell-based, Clone20-Shn3RL, cherry-picked (AID 624133); assay type: functional
# [12] = Shn3 3'UTR reporter inhibitors, dose response, cell-based, Clone20 osteoblasts, firefly luciferase, cherry-picked (AID 624132); assay type: functional;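 note: firefly luciferase luminescence from reporter carrying the Shn3 3'UTR in osteoblasts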
# [13] = HepG2 cell cytotoxicity, dose response, cytotoxicity control for Shn3 inhibitor project, CellTiter-Glo, cherry-picked (AID 624134); assay type: functional, cell-based
# INS1 = assay: beta cell apoptosis inhibitors, cytokine rescue, dose response, luminescence, retest (AID 449756); assay type: functional, cell-based; conditions: Rattus norvegicus;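 note: cell death triggered by IL-1 beta plus TNF-alpha plus IFN-gamma mixture; protective hits raise ATP signal compared with cytokine alone wells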
# Chain of Induced myeloid leukemia cell differentiation protein Mcl-1 (Q07820 whole entry): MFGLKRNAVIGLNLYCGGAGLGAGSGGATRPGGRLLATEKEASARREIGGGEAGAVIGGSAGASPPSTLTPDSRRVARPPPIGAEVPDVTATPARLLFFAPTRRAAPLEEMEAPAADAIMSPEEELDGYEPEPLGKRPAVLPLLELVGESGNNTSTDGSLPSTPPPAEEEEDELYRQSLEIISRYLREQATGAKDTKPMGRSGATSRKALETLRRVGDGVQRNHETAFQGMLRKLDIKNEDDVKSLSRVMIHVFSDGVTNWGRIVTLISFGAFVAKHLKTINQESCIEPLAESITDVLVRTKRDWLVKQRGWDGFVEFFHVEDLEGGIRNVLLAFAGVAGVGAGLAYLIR
smiles,measurement,setting,value
CCN(CC)C(=O)CC(c1cc(OC)c(OC)c(OC)c1)c1c(OC)cc(OC)c2c(-c3ccccc3)cc(=O)oc12 (configuration not stated),IC50,[1],5.26 µM (active)
same,EC50,[2],1.31 µM (active)
COc1ccc(/C=C2/SC(=S)N(CCCC(=O)Nc3cccc(O)c3)C2=O)cc1,IC50,[3],55.8 µM (inactive)
same,AC50,[4],> 380 µM (inactive)
same,EC50,Protein RecA,> 380 µM (inactive)
COc1ccc(-c2c3c(nc4sc5c(O)nc(C)nc5c24)CCC3)cc1,IC50,[5],0.847 µM (active)
same,IC50,[6],> 16 µM (inactive)
Nc1ccc(O)c2c(=O)cc(-c3ccccc3Cl)oc12,AC50,HeLa,79.6 µM (active)
CCCc1cc(NCCCn2ccnc2)n2nc(C)c(-c3ccccc3)c2n1,IC50,cells,29.1 µM (active)
same,CC50,[7],36.2 µM (active)
same,CC50,[8],> 20 µM (active)
CCOc1ccc(N(C(=O)c2snc(C(N)=O)c2N)C(C(=O)NCC2CCCO2)c2c[nH]c3ccccc23)cc1 (configuration not stated),IC50,Bcl-2-related protein A1,> 20 µM (inactive)
same,IC50,[9],5.73 µM (active)
same,IC50,[10],11.1 µM (active)
CC(CCCC(C)(C)O)NC(=O)c1cc(COc2ccc3ncccc3c2)on1 (configuration not stated),AC50,[11],1.06 µM (active)
same,AC50,[12],1.75 µM (active)
same,AC50,[13],3.65 µM (active)
same,IC50,[5],1.96 µM (active)
same,IC50,[6],1.48 µM (active)
same,AC50,INS1,4.37 µM (active)
CCOC(=O)N1CCN(C(=O)c2ccc3c(c2)N(Cc2cc(C)ccc2C)C(=O)c2ccccc2[S+]3[O-])CC1 (configuration not stated),EC50,[2],4.83 µM (active)
CCN(c1ccc(N/C=C2/C(=O)N(Cc3ccc(OC)cc3)C(=O)c3ccccc32)cc1)C(C)C,EC50,[2],2.01 µM (active)
